In one experiment the test system is Neonatal murine calvaria. Kind of experiment: Calvarial Assay to Measure Bone Growth. Type of experiment: cell-based, Swiss white mice. The method, then:
Neonatal murine calvaria from 4 day old Swiss white mice are excised, placed into BGJ media (Sigma), and cut in half along the midline suture. One milliliter of BGJ media supplemented with 0.1% bovine serum albumin (BSA) is added to each well of a 12 well tissue culture plate (Costar) to which the relevant factors or vehicles are added. Each half calvaria is placed on a stainless steel grid in the above media at the media/air interface. Usually 4 bones per experimental group are used. […] Factors to be tested are added on Day 0 (the day of dissection) and media is changed at 24 and 96 hours (if a 7 day assay is required). Calvaria are maintained in humidified air (5% Co2), at 37° C. Following the period of incubation, the calvaria are then removed and fixed overnight in 10% formalin. The calvaria are then decalcified in 14% EDTA overnight and are then embedded in paraffin wax. Sections are then cut, using a standard microtome, along the midline suture to reveal the coronal suture and the region posterior to this suture. Four micrometer sections were taken initially and at two sequential […] depths. Sections are placed on coated glass slides (Superfrost plus, Fisher Scientific, Pittsburgh, Pa.) and stained with hematoxylin and eosin. The total and new bone area (expressed as mm^2), suture thickness (mm), and number of cells lining the bone surface are determined in the section posterior to the […] suture. Histomorphometric analysis is performed using the Osteomeasure System (Osteometrics INC, Atlanta, Ga.).

Another experiment has as its system BMP-2 promoter. Kind of experiment: BMP2 Promoter assay (2T3-BMP2-Luciferase cells, luciferase). Type of experiment: cell-based, murine.
A further experiment concerns BMP-2 protein. Nature of the experiment: BMP-2 Protein Expression Assay (Hu09 cells, ELISA). Type of experiment: cell-based. On the procedure:
The cells are treated with different proteasome inhibitors for 24 hours. After incubation, the conditioned media is transferred into microcentrifuge tubes and centrifuged at 14,000 rpm for 2-3 minutes to remove cellular debris. The concentration of BMP-2 protein in the supernatant is then determined using the standard BMP-2 Elisa Kit (R&D ELISA KIT DBP200). Recombinant hBMP-2 (R&D) is used as a standard.
(In an ELISA, binding on a coated surface is turned into a signal by an enzyme label.)

The subject of the next experiment is BMP-2. Kind of experiment: BMP-2 Gene Expression Assay (MG-63 cells, real time PCR). Format: cell-based, human. The method, then:
It is also possible to test for BMP-2 gene expression and protein expression using assays similar to those described above for testing BMP-2 promoter activity. In particular, for gene expression, the human osteosarcoma cell line, MG-63 (ATCC# CRL-1427), is maintained in phenol-red containing MEM (as recommended by ATCC) at 37° C. and 5% CO2. Twenty-four hours prior to experimentation, 3×10^5 cells are seeded in 12-well plates in phenol-red free MEM. […] After an overnight incubation, RNA is extracted using conventional trizol/guanidine isothiocyanate based lysis. The isolated RNA was digested with RNase-free DNase I to remove any DNA contamination and then reverse transcribed to cDNA using random hexamer as well as oligo(dT) primers according to the manufacturer's instructions (Stratagene). Quantitative real time PCR is performed using FAM-labeled specific primers for BMP-2 and HEX-labeled specific primers for 18S rRNA (Invitrogen). All reactions are carried out in triplicate and the relative amount of mRNAs in treated versus untreated samples is calculated using the comparative CT method established by Applied Biosystems (2001). Gene expression changes of 2-fold or greater are considered significant.
Background: Quantitative PCR measures a nucleic acid by following its amplification.

Experiment [1] concerns Female, Sprague Dawley rats. Kind of experiment: In Vivo Study to Measure Bone Growth - micro-CT measurements. Conditions: positive control, 50 μg/kg (10 μg/200 g)/3 × per week; 35 days; vs placebo group. On the set-up: species or system rat. The method, then:
Three different formulas were tested in an in vivo study involving female, intact rats, aged approximately 12-14 weeks, with approximate body weights between 200-250 grams. Formula 1 included dosages of quercetin anhydrate and licorice at 250 mg quercetin:250 mg licorice ethanol extract and 500 mg quercetin:500 mg licorice ethanol extract. Formula 2 included dosages of quercetin anhydrate and licorice at 250 mg quercetin:125 mg licorice ethanol extract; 500 mg quercetin:250 mg licorice ethanol extract; and 1000 mg quercetin:500 mg licorice ethanol extract. Formula 3 included dosages of quercetin and licorice at 1000 mg quercetin:200 mg licorice ethanol extract. The study lasted 35 days. Eight separate groups of rats were tested with 15 rats in each group. Two of the eight groups of rats tested were control groups. One was a placebo control group and the other group received 50 μg/kg (10 μg/200 g)/3× per week parathyroid hormone. Parathyroid hormone, known as an anabolic agent, served as a positive control. See, e.g., Turner et al., “Disuse in adult male rats attenuates the bone anabolic response to a therapeutic dose of parathyroid hormone.” J. Appl Physiol. 2006. Vol. 101:881-886, the entire contents of which are incorporated herein by reference.
Table 7 below indicates the formula given to each of the 8 test groups. The dosages in Table 7 are based on the recommended human daily dosages. FDA dose conversion formula (Human equivalent dose (HED, mg/kg)=rat dose in mg/kg×(rat weight in kg/human weight in kg)^0.33) was used to convert the human dose to the rat dose. HED=rat NOAEL×(W-rat/W-human)^(1-b), b=0.67.
Female, Sprague Dawley rats were used (200-250 gm each, ˜12-14 weeks old). Animals were fed at 15 gm/day, which included either a placebo diet or one of the formulas listed above, for a period of 35 days from the beginning of the experiment. Chow was made available each morning to the rats at the rate of 15 grams/rat/day. The rats were allowed free access to water and housed in appropriate cages for the entire experiment. Unrestricted activity was allowed during the entire experiment, which lasted 35 days.
The effectiveness of the formulas on bone formation was assessed by outcome measurements that included biomechanical measurement (to assess bone strength and function information), micro-CT (to analyze virtual bone quality and function information), and histomorphology measurement (to analyze bone quality and functional information). […] These measurements were determined after 35 days of treatment. […]
Obtaining information from a wide range of parameters such as bone mineral density (BMD), bone volume (% bone volume/total volume), trabecular number, and trabecular separation is critical for bone structure assessment quantitatively and qualitatively. […]

The subject of experiment [2] is Female, Sprague Dawley rats. Kind of experiment: In Vivo Study to Measure Bone Growth - histomorphological measurements. On the set-up: species or system rat. The settings on record: positive control, 50 μg/kg (10 μg/200 g)/3 × per week; 35 days; vs placebo group. On the procedure: Three different formulas were tested in an in vivo study involving female, intact rats, aged approximately 12-14 weeks, with approximate body weights between 200-250 grams. Formula 1 included dosages of quercetin anhydrate and licorice at 250 mg quercetin:250 mg licorice ethanol extract and 500 mg quercetin:500 mg licorice ethanol extract. Formula 2 included dosages of quercetin anhydrate and licorice at 250 mg quercetin:125 mg licorice ethanol extract; 500 mg quercetin:250 mg licorice ethanol extract; and 1000 mg quercetin:500 mg licorice ethanol extract. Formula 3 included dosages of quercetin and licorice at 1000 mg quercetin:200 mg licorice ethanol extract. The study lasted 35 days. Eight separate groups of rats were tested with 15 rats in each group. Two of the eight groups of rats tested were control groups. One was a placebo control group and the other group received 50 μg/kg (10 μg/200 g)/3× per week parathyroid hormone. Parathyroid hormone, known as an anabolic agent, served as a positive control. See, e.g., Turner et al., “Disuse in adult male rats attenuates the bone anabolic response to a therapeutic dose of parathyroid hormone.” J. Appl Physiol. 2006. […]
(§1) The effectiveness of the formulas on bone formation was assessed by outcome measurements that included biomechanical measurement (to assess bone strength and function information), micro-CT (to analyze virtual bone quality and function information), and histomorphology measurement (to analyze bone quality and functional information). […] These measurements were determined after 35 days of treatment.
Six animals from each group were sacrificed on day 35 following treatment. […] To determine the effect of the different formulas on bone formation, trabecula bone volume, trabecular cells number and trabecular separation were assessed by histomorphology technique. […]
Bone mineral apposition rate (MARs), also reported by Table 8, was determined by measuring the mean interlabel distance divided by the time interval (5 days) between the two fluororchromes administered. […]

Experiment [3] has as its system Female, Sprague Dawley rats. Nature of the experiment: In Vivo Study to Measure Bone Growth - biomechanical measurements. On the set-up: species or system rat. The settings on record: positive control, 50 μg/kg (10 μg/200 g)/3 × per week; 35 days; vs placebo group. On the procedure: Three different formulas were tested in an in vivo study involving female, intact rats, aged approximately 12-14 weeks, with approximate body weights between 200-250 grams. Formula 1 included dosages of quercetin anhydrate and licorice at 250 mg quercetin:250 mg licorice ethanol extract and 500 mg quercetin:500 mg licorice ethanol extract. Formula 2 included dosages of quercetin anhydrate and licorice at 250 mg quercetin:125 mg licorice ethanol extract; 500 mg quercetin:250 mg licorice ethanol extract; and 1000 mg quercetin:500 mg licorice ethanol extract. Formula 3 included dosages of quercetin and licorice at 1000 mg quercetin:200 mg licorice ethanol extract. The study lasted 35 days. […]
as §1
Besides bone mass and bone volume evaluation, bone strength was examined mechanically using two different parameters. One parameter measured the maximum force needed to fracture the bone and the other determined the stiffness (the elasticity) of bone. […]

Values joined by “and” are separate entries in the source; they are usually repeats but may differ in a detail not shown here. Equal values may be shown once. Marks after values point to notes of the source that are not given here.

In the case of `O=c1c(O)c(-c2ccc(O)c(O)c2)oc2cc(O)cc(O)c12` [Q, Quercetin], the “Calvarial Assay Results - Bone Formation Stimulated by Extract Combinations” value with Neonatal murine calvaria (0.2 ug/ml) was 6.90 ± 0.56 mm^2 × 10^−3; in the experiment with Neonatal murine calvaria (0.7 ug/ml), 10.30 ± 0.78^a mm^2 × 10^−3; in the experiment on Neonatal murine calvaria (1 ug/ml), 13.70 ± 3.20^a mm^2 × 10^−3; with Neonatal murine calvaria (8.3 ug/ml), 0.10 ± 0.10 mm^2 × 10^−3; in the experiment with Neonatal murine calvaria (14.3 ug/ml), 0.10 ± 0.12 mm^2 × 10^−3. Besides, the “Calvarial Assay Results- Bone formation” value with Neonatal murine calvaria (1 μg/ml) is reported as 7.57 ± 1.52 mm^2 × 10^−3; in the experiment with Neonatal murine calvaria (10 μg/ml) it was 13.41 ± 2.50^a mm^2 × 10^−3; in the experiment with Neonatal murine calvaria (100 μg/ml), 13.55 ± 1.47^a mm^2 × 10^−3. In addition, the “BMP2 Promoter assay (ratio to control)” value in the experiment with BMP-2 promoter (0.05 μg/ml) is 1.00 FOLD; with BMP-2 promoter (0.1 μg/ml) it was 1.10 FOLD; in the experiment with BMP-2 promoter (0.2 μg/ml) it was 1.10 FOLD; in the experiment on BMP-2 promoter (0.4 μg/ml), 1.00 FOLD; in the experiment on BMP-2 promoter (0.8 μg/ml) it was 1.15 FOLD; in the experiment on BMP-2 promoter (1.6 μg/ml) it was 1.30 FOLD. The “BMP2 Promoter assay (ratio to control)” value in the experiment on BMP-2 promoter (3.2 μg/ml) was 1.80 FOLD; with BMP-2 promoter (6.3 μg/ml), 2.30 FOLD; in the experiment on BMP-2 promoter (12.5 μg/ml), 2.90 FOLD; with BMP-2 promoter (25 μg/ml) it was 3.60 FOLD; with BMP-2 promoter (50 μg/ml) it was 4.80 FOLD; with BMP-2 promoter (100 μg/ml), 5.20 FOLD. The “BMP-2 Protein Expression” value came to 2.0 FOLD in the experiment on BMP-2 protein (1 μg/ml), 4.6 FOLD in the experiment on BMP-2 protein (10 μg/ml) and 2.2 FOLD in the experiment with BMP-2 protein (100 μg/ml). Also, the “BMP-2 Expression (fold change)” value was “No change (−1.06) fold change” in the experiment with BMP-2 (0.1 μg/ml); 2 fold change and 2.03 fold change in the experiment on BMP-2 (1 μg/ml); 2.51 ± 0.14 fold change in the experiment on BMP-2 (5 μg/ml); 4.61 ± 0.07 fold change in the experiment on BMP-2 (20 μg/ml); 14 fold change with BMP-2 (100 μg/ml). For the same molecule, in the experiment with BMP-2 (10 μg/ml), the “Fold Change in Gene Expression” value amounted to 2.6 × increase.
For the molecule `CCC(C)(C)C(=O)O[C@H]1C[C@@H](C)C=C2C=C[C@H](C)[C@H](CC[C@@H]3C[C@@H](O)CC(=O)O3)[C@H]21` [Simvastatin], the “Calvarial Assay Results- Bone formation” value in the experiment on Neonatal murine calvaria (0.25 μM, positive control) amounted to 7.45 ± 1.34 mm^2 × 10^−3; with Neonatal murine calvaria (0.5 μM, positive control), 9.50 ± 1.00 mm^2 × 10^−3; with Neonatal murine calvaria (1 μM, positive control) it was 12.5 ± 1.00 mm^2 × 10^−3.

B1: PTH: parathyroid hormone, anabolic agent, positive control (protein, UniProt P01270 32-115, looked up)
Parathyroid hormone: SVSEIQLMHNLGKHLNSMERVEWLRKKLQDVHNFVALGAPLAPRDAGSQRPRKKEDNVLVESHEKSLGEADKADVNVLTKAKSQ
modifications: Parathyroid hormone
notes: parathyroid hormone, anabolic agent, positive control
With B1, in experiment [1], the “% Bone Volume/ Total Volume” value worked out at 32%^a, the “Bone Mineral Density (BMD)” value worked out at 86%^a, the “Trabecular Number (N/6 mm^2)” value is 25%^a and the “Trabecular separation (mm)” value was −28%^a. Moreover, in experiment [2], the “Trabecular Separation” value was −38.30%, the Trabecular thickness worked out at 7.35% and the “reduction in trabecular separation” value worked out at 38.30%. Also, in experiment [3], the “Bone Stiffness” value was 0.0% and the “Maximum Force Required to Fracture Bones” value was found to be 0.0%.

These data come from US9446087B2, “Anti-resorptive and bone building dietary supplements and methods of use” (priority 2006, dated 2016).
